Numbers after ± are expanded uncertainties.
Test: activity coefficient (dimensionless); of the first substance listed, at infinite dilution; xn = mol fraction of the nth substance listed
Conditions: 101 kPa, Liquid, Chromatography, x1 = 0

SMILES	activity coefficient (318.15 K)	activity coefficient (328.15 K)	activity coefficient (338.15 K)	activity coefficient (348.15 K)	activity coefficient (358.15 K)	activity coefficient (368.15 K)
CC1CCCCC1 [methylcyclohexane] + COCC[N+]1(C)CCCCC1.O=S(=O)([N-]S(=O)(=O)C(F)(F)F)C(F)(F)F	13.5 ± 0.6	12.7 ± 0.6	12 ± 0.6	11.2 ± 0.5	10.6 ± 0.5	10.2 ± 0.5
CCCCCCCCC [nonane] + COCC[N+]1(C)CCCCC1.O=S(=O)([N-]S(=O)(=O)C(F)(F)F)C(F)(F)F	50.8 ± 2.4	46.3 ± 2.2	42 ± 2	38.2 ± 1.8	35.1 ± 1.6	32.4 ± 1.5
C=CCCCCCC [oct-1-ene] + COCC[N+]1(C)CCCCC1.O=S(=O)([N-]S(=O)(=O)C(F)(F)F)C(F)(F)F	18.1 ± 1.2	17 ± 1.2	16.1 ± 1.1	15.1 ± 1	14.4 ± 1	13.8 ± 0.9
CCCCCCCC [octane] + COCC[N+]1(C)CCCCC1.O=S(=O)([N-]S(=O)(=O)C(F)(F)F)C(F)(F)F	35.4 ± 1.6	32.6 ± 1.5	30 ± 1.4	27.6 ± 1.3	25.6 ± 1.2	23.8 ± 1.1
CCCC(C)=O [pentan-2-one] + COCC[N+]1(C)CCCCC1.O=S(=O)([N-]S(=O)(=O)C(F)(F)F)C(F)(F)F	0.786 ± 0.051	0.801 ± 0.052	0.813 ± 0.053	0.825 ± 0.053	0.837 ± 0.054	0.849 ± 0.054
CCC(=O)CC [pentan-3-one] + COCC[N+]1(C)CCCCC1.O=S(=O)([N-]S(=O)(=O)C(F)(F)F)C(F)(F)F	0.785 ± 0.051	0.801 ± 0.052	0.821 ± 0.053	0.838 ± 0.054	0.852 ± 0.055	0.869 ± 0.056
CCCCC [pentane] + COCC[N+]1(C)CCCCC1.O=S(=O)([N-]S(=O)(=O)C(F)(F)F)C(F)(F)F	11.8 ± 0.5	11.3 ± 0.5	10.8 ± 0.5	10.3 ± 0.5	9.86 ± 0.45	9.48 ± 0.44
CCCO [propan-1-ol] + COCC[N+]1(C)CCCCC1.O=S(=O)([N-]S(=O)(=O)C(F)(F)F)C(F)(F)F	2.13 ± 0.14	1.93 ± 0.13	1.77 ± 0.12	1.61 ± 0.11	1.5 ± 0.1	1.4 ± 0.09
CC(C)O [propan-2-ol] + COCC[N+]1(C)CCCCC1.O=S(=O)([N-]S(=O)(=O)C(F)(F)F)C(F)(F)F	1.92 ± 0.13	1.76 ± 0.12	1.61 ± 0.11	1.47 ± 0.1	1.37 ± 0.09	1.28 ± 0.08
c1ccncc1 [pyridine] + COCC[N+]1(C)CCCCC1.O=S(=O)([N-]S(=O)(=O)C(F)(F)F)C(F)(F)F	0.548 ± 0.04	0.555 ± 0.04	0.562 ± 0.04	0.57 ± 0.041	0.577 ± 0.041	0.583 ± 0.041
C=Cc1ccccc1 [styrene] + COCC[N+]1(C)CCCCC1.O=S(=O)([N-]S(=O)(=O)C(F)(F)F)C(F)(F)F	1.08 ± 0.07	1.1 ± 0.07	1.13 ± 0.07	1.14 ± 0.07	1.16 ± 0.07	1.19 ± 0.08
C1CCOC1 [tetrahydrofuran] + COCC[N+]1(C)CCCCC1.O=S(=O)([N-]S(=O)(=O)C(F)(F)F)C(F)(F)F	0.76 ± 0.05	0.773 ± 0.051	0.787 ± 0.051	0.799 ± 0.052	0.809 ± 0.052	0.821 ± 0.053
c1ccsc1 [thiophene] + COCC[N+]1(C)CCCCC1.O=S(=O)([N-]S(=O)(=O)C(F)(F)F)C(F)(F)F	0.787 ± 0.051	0.798 ± 0.052	0.808 ± 0.052	0.819 ± 0.053	0.829 ± 0.053	0.839 ± 0.054
Cc1ccccc1 [toluene] + COCC[N+]1(C)CCCCC1.O=S(=O)([N-]S(=O)(=O)C(F)(F)F)C(F)(F)F	1.29 ± 0.08	1.3 ± 0.08	1.32 ± 0.09	1.33 ± 0.09	1.34 ± 0.09	1.35 ± 0.09
O [water] + COCC[N+]1(C)CCCCC1.O=S(=O)([N-]S(=O)(=O)C(F)(F)F)C(F)(F)F	3.35 ± 0.23	2.93 ± 0.2	2.62 ± 0.18	2.33 ± 0.16	2.07 ± 0.14	1.87 ± 0.13

— the NIST ThermoML archive (doi:10.1016/j.jct.2012.01.019)
